The source of these data is publication PMC2818879 (Journal of medicinal chemistry, 2010).

In general, Emax refers to the size of the effect at its maximum, as opposed to the concentration needed.

For one assay, the target named is cloned human D2 receptor (Homo sapiens, UniProt P14416). Briefly: Stimulation of [35S]GTPγS binding, D2 receptor expressed in CHO cells. The following applies: read-out: CHO-D2 %Emax. In general terms: Binding of GTPγS marks nucleotide exchange on a G protein.
The subject of assay [1] is reserpine-induced hypolocomotion in rats. Briefly: Reversal of reserpine-induced hypolocomotion in rats. The following applies: 10 µMol/kg s.c.; for Effect compared to reserpine control (ANOVA, Dunnett's analysis): horizontal activity, six rats.
The next assay deals with cloned rat D3 receptor (Rattus norvegicus, UniProt P19020). Briefly: Inhibition of [3H]spiperone binding to D3 receptors expressed in HEK-293 cells. The conditions noted are these: ratio of Ki values.
The next assay relates to 6-OHDA lesioned rats. Briefly: Rotational experiment with 6-OH-DA unilaterally lesioned rats. It counts as in vivo, rat.

Sequence of cloned human D2 receptor (P14416 whole entry): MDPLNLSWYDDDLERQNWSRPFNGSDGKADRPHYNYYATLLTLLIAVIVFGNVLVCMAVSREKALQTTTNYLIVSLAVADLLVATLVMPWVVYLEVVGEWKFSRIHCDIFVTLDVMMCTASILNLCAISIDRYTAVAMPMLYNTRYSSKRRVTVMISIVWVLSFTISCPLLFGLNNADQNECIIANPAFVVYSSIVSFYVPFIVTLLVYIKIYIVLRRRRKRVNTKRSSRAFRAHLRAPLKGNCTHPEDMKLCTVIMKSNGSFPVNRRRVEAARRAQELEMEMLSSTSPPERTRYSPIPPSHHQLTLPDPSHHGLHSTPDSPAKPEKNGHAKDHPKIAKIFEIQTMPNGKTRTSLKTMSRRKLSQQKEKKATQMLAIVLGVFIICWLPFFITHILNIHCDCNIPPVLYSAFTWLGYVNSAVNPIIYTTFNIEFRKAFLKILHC

In the case of `CCCN(CCC)CCc1cccc2c1CC(=O)N2` [Ropinirole, reference compound], the Emax at cloned human D2 receptor was 83.9 ± 0.3%. Moreover, the “Effect compared to reserpine control (ANOVA, Dunnett's analysis)” value (shortened to “Effect compared to reserpine control”) in assay [1] is given as “significantly different”.

Take `CCCN(CCN1CCN(c2ccnc3ccccc23)CC1)C1CCc2c(O)cccc2C1` (stereo not shown) [Compound 20d, 6-(Propyl(2-(4-(quinolin-4-yl)piperazin-1-yl)ethyl)amino)-5,6,7,8-tetrahydronaphthalen-1-ol]: the D2L/D3 on cloned rat D3 receptor is listed as […].

With `CCCN(CCN1CCN(c2cccc3ncccc23)CC1)[C@H]1CCc2nc(N)sc2C1` [(−)-24b, (S)-N^6-Propyl-N^6-(2-(4-(quinolin-5-yl)piperazin-1-yl)ethyl)-4,5,6,7-tetrahydrobenzo[d]thiazole-2,6-diamine], in the assay with 6-OHDA lesioned rats (5 µMol/kg s.c.), the “Time of peak effect (rotations)” value was “around 5 h” and the “Total rotations (contralateral)” value stood at 2295. In the assay with 6-OHDA lesioned rats (10 µMol/kg s.c.), the “Time of peak effect (rotations)” value is recorded as “around 7.5 h” and the “Total rotations (contralateral)” value was found to be 2648. Besides, in assay [1], the “Effect compared to reserpine control” value is given as “significantly different”.

Regarding `CCCN(CCN1CCN(c2ccnc3ccccc23)CC1)[C@H]1CCc2nc(N)sc2C1` [(−)-24a, (S)-N^6-Propyl-N^6-(2-(4-(quinolin-4-yl)piperazin-1-yl)ethyl)-4,5,6,7-tetrahydrobenzo[d]thiazole-2,6-diamine], the “Effect compared to reserpine control” value in assay [1] was “not statistically significant”. Besides, in assay [1] (reserpine 5 mg/kg s.c. 18 h before, locomotion monitored 6 h), the “Reversal of reserpine-induced hypolocomotion” value is “much less active compared to 24b and 24c”.

Regarding `CCCN(CCN1CCN(c2ccc(-c3ccccc3)cc2)CC1)[C@H]1CCc2nc(N)sc2C1` [Compound 2], the Emax on cloned human D2 receptor came to 119 ± 6%.

As for `CCCN(CCN1CCN(c2nccc3ccccc23)CC1)[C@H]1CCc2nc(N)sc2C1` [(−)-24c, (S)-N^6-(2-(4-(Isoquinolin-1-yl)piperazin-1-yl)ethyl)-N^6-propyl-4,5,6,7-tetrahydrobenzo[d]-thiazole-2,6-diamine], the “Total rotations (contralateral)” value with 6-OHDA lesioned rats (5 µMol/kg s.c.) stood at 2805. In the assay with 6-OHDA lesioned rats (10 µMol/kg s.c.), the “Time of peak effect (rotations)” value is reported as “about 7 h” and the “Total rotations (contralateral)” value was 3688. On cloned human D2 receptor, the Emax was 88.4 ± 3.9%. Besides, the “Effect compared to reserpine control” value in assay [1] is given as “significantly different”.
